Assay results from patent publication US10960004B2, “Method for treating cancer patients with severe renal impairment” (TAIHO PHARMACEUTICAL CO., LTD., priority 2016, dated 2021).
Like-named read-outs stand apart in the source and are kept apart here.

Assay: Pharmacokinetics of FTD and TPI in plasma of solid cancer patients given FTD/TPI combination drug, by renal function cohort
Type: in vivo, human
Settings: for CL/F / Cmax / half-life / AUC(0-t): 35 mg/m^2 per once as FTD, oral, twice a day, plasma, mean; for Cmax / half-life / AUC(0-t): human, po; for AUC(0-t): read-out: AUC0-12; for AUC0-12 higher as compared to patients with normal renal function: after repeated administrations, 35 mg/m^2
Experimental: Pharmacokinetic of FTD was studied in patients with solid cancer including colorectal cancer, when performing a treatment of repeating an administration schedule of orally administering an FTD/TPI combination drug (mixture of FTD and TPI in a molar ratio of 1:0.5) in 35 mg/m^2 per once (as FTD, the same applies hereinafter) for 5 consecutive days twice a day, followed by rest for 2 days twice, followed by rest for 14 days, and repeating this procedure as one cycle. […] Blood collection was performed after administration of the FTD/TPI combination drug on Day 1 and Day 12, at predose and at 0.5, 1, 2, 4, 6, 8, 10, 12 hours after administration, and FTD and TPI concentrations in plasma were measured. Pharmacokinetic parameters of FTD and TPI were calculated using the resulting concentrations in the plasma, and the results were shown in Table 1.

[1] = Day 1, Cohort 0: normal renal function
[2] = Day 1, Cohort 1: mild renal impairment (CLcr 60 to 89 mL/min)
[3] = Day 1, Cohort 2: moderate renal impairment (CLcr 30 to 59 mL/min)
[4] = Day 12, Cohort 0: normal renal function
[5] = Day 12, Cohort 1: mild renal impairment (CLcr 60 to 89 mL/min)
[6] = Day 12, Cohort 2: moderate renal impairment (CLcr 30 to 59 mL/min)
[7] = 35 mg/m2, Day 1, Cohort 0: normal renal function
[8] = 35 mg/m2, Day 1, Cohort 1: mild renal impairment (CLcr 60 to 89 mL/min)
[9] = 35 mg/m2, Day 1, Cohort 2: moderate renal impairment (CLcr 30 to 59 mL/min)
[10] = 35 mg/m2, Day 12, Cohort 0: normal renal function
[11] = 35 mg/m2, Day 12, Cohort 1: mild renal impairment (CLcr 60 to 89 mL/min)
[12] = 35 mg/m2, Day 12, Cohort 2: moderate renal impairment (CLcr 30 to 59 mL/min)

Row | SMILES | CL/F [1] [L/h] | CL/F [2] [L/h] | CL/F [3] [L/h] | CL/F [4] [L/h] | CL/F [5] [L/h] | CL/F [6] [L/h] | Cmax [7] [µg/mL] | half-life [7] [h] | AUC(0-t) [7] [µg·h/mL] | Cmax [8] [µg/mL] | half-life [8] [h] | AUC(0-t) [8] [µg·h/mL] | Cmax [9] [µg/mL] | half-life [9] [h] | AUC(0-t) [9] [µg·h/mL] | Cmax [10] [µg/mL] | half-life [10] [h] | AUC(0-t) [10] [µg·h/mL] | Cmax [11] [µg/mL] | half-life [11] [h] | other results
1 | O=c1[nH]c(=O)n([C@H]2C[C@H](O)[C@@H](CO)O2)cc1C(F)(F)F [FTD, α,α,α-trifluorothymidine] | 8.72 | 10.08 | 9.17 | 3.29 | 4.1 | 2.1 | 2.88 | 1.26 | 7.87 | 3.16 | 1.79 | 7.29 | 2.76 | 1.9 | 8.13 | 5.24 | 2.09 | 20.1 | 4.67 | 2.4 | AUC(0-t) [11]: 23.4 µg·h/mL; Cmax [12]: 6.01 µg/mL; half-life [12]: 3.22 h; AUC(0-t) [12]: 30.4 µg·h/mL; AUC0-12 higher as compared to patients with normal renal function (patients with mild renal impairment (Cohort 1)): about 16%; AUC0-12 higher as compared to patients with normal renal function (patients with moderate renal impairment (Cohort 2)): about 51%
2 | Cl.N=C1CCCN1Cc1[nH]c(=O)[nH]c(=O)c1Cl [TPI, 5-chloro-6-[(2-iminopyrrolidine-1-yl)methyl]pyrimidine-2,4(1H,3H)-dione hydrochloride] | 148.5 | 105.1 | 64.8 | 128.3 | 83.1 | 62 | 0.0465 | 2.04 | 0.234 | 0.0939 | 2.33 | 0.38 | 0.1 | 2.42 | 0.494 | 0.0488 | 2.61 | 0.247 | 0.0678 | 2.54 | AUC(0-t) [11]: 0.383 µg·h/mL; Cmax [12]: 0.112 µg/mL; half-life [12]: 2.63 h; AUC(0-t) [12]: 0.602 µg·h/mL
